This note sets out measurements from paper PMC5218480 (PLoS ONE, 2017).

The test system of the experiment is MV-4-11 cells. Description: Gene expression microarray analysis (Affymetrix PrimeView) and GSEA. The experiment is classed as cell-based, human. Also on record: RFU PODN (11730768_x_at) / Fold change /veh PODN (11730768_x_at) / RFU LINC00158 (11744669_a_at) / Fold change /veh LINC00158 (11744669_a_at) / RFU DUSP10 (11751237_a_at) / Fold change /veh DUSP10 (11751237_a_at) / RFU ID3 (11757404_x_at) / Fold change /veh ID3 (11757404_x_at) / RFU PLEKHG5 (11737974_s_at) / Fold change /veh PLEKHG5 (11737974_s_at) / RFU LRRC4B (11730491_at) / Fold change /veh LRRC4B (11730491_at) / RFU GIMAP4 (11747438_a_at) / Fold change /veh GIMAP4 (11747438_a_at) / RFU KRT8 (11758183_x_at) / Fold change /veh KRT8 (11758183_x_at) / RFU CNN1 (11734310_a_at) / Fold change /veh CNN1 (11734310_a_at) / RFU VPS37D (11726825_at) / Fold change /veh VPS37D (11726825_at) / RFU C10orf10 (11716522_x_at) / Fold change /veh C10orf10 (11716522_x_at) / RFU KIR2DL2 /// KIR2DL4 /// KIR2DL5A /// KIR2DL5B /// KIR2DS1 /// KIR2DS2 /// KIR2DS3 /// KIR2DS4 /// KIR3DL3 /// KIR3DL3 /// KIR3DS1 (11738374_at) / Fold change /veh KIR2DL2 /// KIR2DL4 /// KIR2DL5A /// KIR2DL5B /// KIR2DS1 /// KIR2DS2 /// KIR2DS3 /// KIR2DS4 /// KIR3DL3 /// KIR3DL3 /// KIR3DS1 (11738374_at) / RFU C1QL1 (11718748_at) / Fold change /veh C1QL1 (11718748_at) / RFU TMPRSS4 (11747572_a_at) / Fold change /veh TMPRSS4 (11747572_a_at) / RFU HAMP (11756126_x_at) / Fold change /veh HAMP (11756126_x_at) / RFU RNFT2 (11725882_a_at) / Fold change /veh RNFT2 (11725882_a_at) / RFU NR4A2 (11747474_a_at) / Fold change /veh NR4A2 (11747474_a_at) / RFU ABCC12 (11746883_a_at) / Fold change /veh ABCC12 (11746883_a_at) / RFU TMEM136 (11760407_x_at) / Fold change /veh TMEM136 (11760407_x_at) / RFU CLDN22 /// WWC2 (11732394_at) / Fold change /veh CLDN22 /// WWC2 (11732394_at) / RFU HLA-DPB1 (11760878_x_at) / Fold change /veh HLA-DPB1 (11760878_x_at) / RFU SPINT1 (11716480_a_at) / Fold change /veh SPINT1 (11716480_a_at) / RFU GAP43 (11754022_s_at) / Fold change /veh GAP43 (11754022_s_at) / RFU A4GNT (11735810_at) / Fold change /veh A4GNT (11735810_at) / RFU PRB3 (11715151_x_at) / Fold change /veh PRB3 (11715151_x_at) / RFU TUBB4B (11761932_at) / Fold change /veh TUBB4B (11761932_at) / RFU CAPN14 (11732068_a_at) / Fold change /veh CAPN14 (11732068_a_at) / RFU TMCC2 (11721928_a_at) / Fold change /veh TMCC2 (11721928_a_at) / RFU IRGQ (11745062_a_at) / Fold change /veh IRGQ (11745062_a_at) / RFU FAM174B (11720279_a_at) / Fold change /veh FAM174B (11720279_a_at) / RFU TMPRSS4 (11748680_a_at) / Fold change /veh TMPRSS4 (11748680_a_at) / RFU FAM212B (11763350_a_at) / Fold change /veh FAM212B (11763350_a_at) / RFU PLEKHG5 (11743358_a_at) / Fold change /veh PLEKHG5 (11743358_a_at) / RFU ZSCAN30 (11745921_a_at) / Fold change /veh ZSCAN30 (11745921_a_at) / RFU CMKLR1 (11741424_a_at) / Fold change /veh CMKLR1 (11741424_a_at) / RFU LOC101060620 /// MAPK8IP1 (11723275_at) / Fold change /veh LOC101060620 /// MAPK8IP1 (11723275_at) / RFU SPTSSB (11747773_x_at) / Fold change /veh SPTSSB (11747773_x_at) / RFU PRSS12 (11739890_at) / Fold change /veh PRSS12 (11739890_at) / RFU BIN1 (11741810_x_at) / Fold change /veh BIN1 (11741810_x_at) / RFU WNT11 (11732464_a_at) / Fold change /veh WNT11 (11732464_a_at) / RFU C10orf10 (11716521_a_at) / Fold change /veh C10orf10 (11716521_a_at) / RFU C5orf56 (11738089_at) / Fold change /veh C5orf56 (11738089_at) / RFU CYB561 (11721691_x_at) / Fold change /veh CYB561 (11721691_x_at) / RFU ANKRD19P (11752326_a_at) / Fold change /veh ANKRD19P (11752326_a_at) / RFU OR2T12 /// OR2T33 /// OR2T8 (11738714_s_at) / Fold change /veh OR2T12 /// OR2T33 /// OR2T8 (11738714_s_at) / RFU VCAN (11748164_a_at) / Fold change /veh VCAN (11748164_a_at) / RFU JSRP1 (11732532_at) / Fold change /veh JSRP1 (11732532_at) / RFU KRTAP10-11 (11738290_x_at) / Fold change /veh KRTAP10-11 (11738290_x_at) / RFU MYO3A (11730013_a_at) / Fold change /veh MYO3A (11730013_a_at) / RFU EBF3 (11725865_a_at) / Fold change /veh EBF3 (11725865_a_at) / RFU CAMK2N1 (11719241_x_at) / Fold change /veh CAMK2N1 (11719241_x_at) / RFU C5orf56 (11738088_a_at) / Fold change /veh C5orf56 (11738088_a_at) / RFU OLFML3 (11715873_a_at) / Fold change /veh OLFML3 (11715873_a_at) / RFU LOC100653217 /// NTM (11731650_a_at) / Fold change /veh LOC100653217 /// NTM (11731650_a_at) / RFU MAPK11 (11762145_a_at) / Fold change /veh MAPK11 (11762145_a_at) / RFU FIZ1 (11724087_x_at) / Fold change /veh FIZ1 (11724087_x_at) / RFU OASL (11726364_x_at) / Fold change /veh OASL (11726364_x_at) / RFU SOX15 (11748057_x_at) / Fold change /veh SOX15 (11748057_x_at) / RFU CD79A (11719716_a_at) / Fold change /veh CD79A (11719716_a_at) / RFU HIST1H1D (11736915_at) / Fold change /veh HIST1H1D (11736915_at) / RFU CASKIN2 (11723855_a_at) / Fold change /veh CASKIN2 (11723855_a_at) / RFU LOC730098 (11760151_x_at) / Fold change /veh LOC730098 (11760151_x_at) / RFU OR4N2 (11742367_at) / Fold change /veh OR4N2 (11742367_at) / RFU PRRT2 (11749266_a_at) / Fold change /veh PRRT2 (11749266_a_at) / RFU SNX32 (11753110_a_at) / Fold change /veh SNX32 (11753110_a_at) / RFU CDHR5 (11726645_a_at) / Fold change /veh CDHR5 (11726645_a_at) / RFU RCAN1 (11760418_a_at) / Fold change /veh RCAN1 (11760418_a_at) / RFU FAM167A (11723789_a_at) / Fold change /veh FAM167A (11723789_a_at) / RFU FAM26E (11764081_at) / Fold change /veh FAM26E (11764081_at) / RFU ISYNA1 (11749810_s_at) / Fold change /veh ISYNA1 (11749810_s_at) / RFU ACY1 (11761880_at) / Fold change /veh ACY1 (11761880_at) / RFU 11764098_at / Fold change /veh 11764098_at / RFU SAMD14 (11745864_x_at) / Fold change /veh SAMD14 (11745864_x_at) / RFU NPB (11741838_a_at) / Fold change /veh NPB (11741838_a_at) / RFU TMPRSS6 (11731388_a_at) / Fold change /veh TMPRSS6 (11731388_a_at) / RFU KRTAP10-2 (11738614_at) / Fold change /veh KRTAP10-2 (11738614_at) / RFU ARHGAP8 /// PRR5-ARHGAP8 (11727945_x_at) / Fold change /veh ARHGAP8 /// PRR5-ARHGAP8 (11727945_x_at) / RFU KRTAP5-7 /// NADSYN1 (11734609_at) / Fold change /veh KRTAP5-7 /// NADSYN1 (11734609_at) / RFU RASL12 (11751679_a_at) / Fold change /veh RASL12 (11751679_a_at) / RFU CDKN2B (11736163_a_at) / Fold change /veh CDKN2B (11736163_a_at) / RFU PRF1 (11729649_at) / Fold change /veh PRF1 (11729649_at) / RFU, ZNF638 /// ZNF638-IT1 / Fold change vs veh, ZNF638 /// ZNF638-IT1 / RFU, PANK3 / Fold change vs veh, PANK3 / RFU, SH3YL1 / Fold change vs veh, SH3YL1 / RFU, ZEB2 / Fold change vs veh, ZEB2 / RFU, NRIP1 / Fold change vs veh, NRIP1 / RFU, PTTG1IP / Fold change vs veh, PTTG1IP / RFU, CAPN2 / Fold change vs veh, CAPN2 / RFU, MED14 / Fold change vs veh, MED14 / RFU, SNORA58 / Fold change vs veh, SNORA58 / RFU, C1orf63 / Fold change vs veh, C1orf63 / RFU, LRRFIP1 / Fold change vs veh, LRRFIP1 / RFU, NDUFAF7 / Fold change vs veh, NDUFAF7 / RFU, SLC12A2 / Fold change vs veh, SLC12A2 / RFU, IBTK / Fold change vs veh, IBTK / RFU, ESF1 / Fold change vs veh, ESF1 / Fold change vs veh, TMEM50B / RFU, TAOK1 / Fold change vs veh, TAOK1 / RFU, ACBD3 / Fold change vs veh, ACBD3 / RFU, TMA16 / Fold change vs veh, TMA16 / RFU, RWDD3 / Fold change vs veh, RWDD3 / RFU, BCAT1 / Fold change vs veh, BCAT1 / RFU, EDEM3 / Fold change vs veh, EDEM3 / RFU, TMEM33 / Fold change vs veh, TMEM33 / RFU, WDR75 / Fold change vs veh, WDR75 / RFU, AHCTF1 / Fold change vs veh, AHCTF1 / RFU, TFRC / Fold change vs veh, TFRC / RFU, ZDHHC17 / Fold change vs veh, ZDHHC17 / RFU, NOM1 / Fold change vs veh, NOM1 / RFU, ARL8B / Fold change vs veh, ARL8B / RFU, ZBTB11 / Fold change vs veh, ZBTB11 / RFU, TAMM41 / Fold change vs veh, TAMM41 / RFU, KIAA1704 /// LOC100996395 / Fold change vs veh, KIAA1704 /// LOC100996395 / RFU, ING1 / Fold change vs veh, ING1 / RFU, TRMT61B / Fold change vs veh, TRMT61B / RFU, FUBP3 / Fold change vs veh, FUBP3 / RFU, TP53 / Fold change vs veh, TP53 / RFU, TNKS2 / Fold change vs veh, TNKS2 / RFU, ZFP14 / Fold change vs veh, ZFP14 / RFU, ACTR2 / Fold change vs veh, ACTR2 / RFU, PPP3R1 / Fold change vs veh, PPP3R1 / RFU, PIK3R1 / Fold change vs veh, PIK3R1 / RFU, HNRNPA1 / Fold change vs veh, HNRNPA1 / RFU, RNF170 / Fold change vs veh, RNF170 / RFU, ZNF28 / Fold change vs veh, ZNF28 / RFU, RNGTT / Fold change vs veh, RNGTT / RFU, OGT / Fold change vs veh, OGT / RFU, BRD1 / Fold change vs veh, BRD1 / RFU, MARS / Fold change vs veh, MARS / RFU, ZNF655 / Fold change vs veh, ZNF655 / RFU, FAHD1 / Fold change vs veh, FAHD1 / RFU, BDP1 / Fold change vs veh, BDP1 / RFU, LRRCC1 / Fold change vs veh, LRRCC1 / RFU, ARID1A / Fold change vs veh, ARID1A / RFU, ZNF146 / Fold change vs veh, ZNF146 / RFU, ZNF330 / Fold change vs veh, ZNF330 / RFU, GPN3 / Fold change vs veh, GPN3 / RFU, C9orf123 / Fold change vs veh, C9orf123 / RFU, N4BP2L2 / Fold change vs veh, N4BP2L2 / RFU, ARFIP1 / Fold change vs veh, ARFIP1 / RFU, FAM179B / Fold change vs veh, FAM179B / RFU, BCL10 / Fold change vs veh, BCL10 / RFU, UHRF1BP1L / Fold change vs veh, UHRF1BP1L / RFU, BET1 / Fold change vs veh, BET1 / RFU, CNOT2 / Fold change vs veh, CNOT2 / RFU, ZNF268 / Fold change vs veh, ZNF268 / Fold change vs veh, ZNF507 / RFU, DGCR2 / Fold change vs veh, DGCR2 / RFU, WDSUB1 / Fold change vs veh, WDSUB1 / Fold change vs veh, HSP90B1 /// MIR3652 / RFU, ADSS / Fold change vs veh, ADSS / RFU, GK / Fold change vs veh, GK / RFU, ZNF148 / Fold change vs veh, ZNF148 / RFU, TAF9 / Fold change vs veh, TAF9 / RFU, SLC1A5 / Fold change vs veh, SLC1A5 / RFU, SLMO2 / Fold change vs veh, SLMO2 / RFU, ABCC4 / Fold change vs veh, ABCC4 / RFU, LOC101060439 /// RAP1B / Fold change vs veh, LOC101060439 /// RAP1B / RFU, RFX7 / Fold change vs veh, RFX7 / RFU, GTPBP10 / Fold change vs veh, GTPBP10 / RFU, CNEP1R1 / Fold change vs veh, CNEP1R1 / RFU, BIVM-ERCC5 /// ERCC5 / Fold change vs veh, BIVM-ERCC5 /// ERCC5 / RFU, ILF3 / Fold change vs veh, ILF3 / RFU 11762660_at / Fold change /veh 11762660_at / RFU VCAN (11757783_s_at) / Fold change /veh VCAN (11757783_s_at) / RFU DDX43 (11728927_at) / Fold change /veh DDX43 (11728927_at) / RFU KRT8 (11758188_x_at) / Fold change /veh KRT8 (11758188_x_at) / RFU NKD1 (11759106_at) / Fold change /veh NKD1 (11759106_at) / RFU SRD5A1 (11742802_a_at) / Fold change /veh SRD5A1 (11742802_a_at) / RFU TPSAB1 /// TPSB2 (11721975_s_at) / Fold change /veh TPSAB1 /// TPSB2 (11721975_s_at) / RFU GSTM3 (11746129_a_at) / Fold change /veh GSTM3 (11746129_a_at) / RFU IL23R (11737362_x_at) / Fold change /veh IL23R (11737362_x_at) / RFU TMEM51 (11727254_a_at) / Fold change /veh TMEM51 (11727254_a_at) / RFU PIWIL2 (11732686_x_at) / Fold change /veh PIWIL2 (11732686_x_at) / RFU ORM1 (11744905_x_at) / Fold change /veh ORM1 (11744905_x_at) / RFU CCDC152 (11743942_at) / Fold change /veh CCDC152 (11743942_at) / RFU ECM1 (11717891_a_at) / Fold change /veh ECM1 (11717891_a_at) / RFU IL23R (11748794_a_at) / Fold change /veh IL23R (11748794_a_at) / RFU TNFAIP8L3 (11732012_x_at) / Fold change /veh TNFAIP8L3 (11732012_x_at) / RFU MBOAT4 (11741988_at) / Fold change /veh MBOAT4 (11741988_at) / RFU 11764193_at / Fold change /veh 11764193_at / RFU TMEM53 (11763286_at) / Fold change /veh TMEM53 (11763286_at) / RFU MAGEB2 (11727129_at) / Fold change /veh MAGEB2 (11727129_at) / RFU TMEM200A (11744735_a_at) / Fold change /veh TMEM200A (11744735_a_at) / RFU CCDC152 (11751479_a_at) / Fold change /veh CCDC152 (11751479_a_at) / RFU FAM211A (11726209_a_at) / Fold change /veh FAM211A (11726209_a_at) / RFU RGS16 (11746705_a_at) / Fold change /veh RGS16 (11746705_a_at) / RFU VCAN (11755009_s_at) / Fold change /veh VCAN (11755009_s_at) / RFU RHOB (11743442_s_at) / Fold change /veh RHOB (11743442_s_at) / RFU RGS16 (11720943_a_at) / Fold change /veh RGS16 (11720943_a_at) / RFU RGS16 (11720944_at) / Fold change /veh RGS16 (11720944_at) / RFU, VPS4B / Fold change vs veh, VPS4B / RFU, CREB1 / Fold change vs veh, CREB1 / RFU, DNAJC13 / Fold change vs veh, DNAJC13 / RFU, GNAQ / Fold change vs veh, GNAQ / RFU, CDK5R1 / Fold change vs veh, CDK5R1 / RFU, ZRANB3 / Fold change vs veh, ZRANB3 / RFU, CUL4A / Fold change vs veh, CUL4A / RFU, CCNY / Fold change vs veh, CCNY / RFU, UFL1 / Fold change vs veh, UFL1 / RFU, COG3 / Fold change vs veh, COG3 / RFU, DIAPH2 / Fold change vs veh, DIAPH2 / RFU, SKA2 / Fold change vs veh, SKA2 / RFU, AFF3 / Fold change vs veh, AFF3 / RFU, LMF1 / Fold change vs veh, LMF1 / RFU, IPO11 / Fold change vs veh, IPO11 / RFU, DFFB / Fold change vs veh, DFFB / RFU, FOXP1 / Fold change vs veh, FOXP1 / RFU, CARD8 / Fold change vs veh, CARD8 / RFU, STRN3 / Fold change vs veh, STRN3 / RFU, ADK / Fold change vs veh, ADK / RFU, RASSF2 / Fold change vs veh, RASSF2 / RFU, WIPF1 / Fold change vs veh, WIPF1 / RFU, LARP1B / Fold change vs veh, LARP1B / RFU, RASA1 / Fold change vs veh, RASA1 / RFU, RB1 / Fold change vs veh, RB1 / RFU, PPFIA1 / Fold change vs veh, PPFIA1 / RFU, MAT2A / Fold change vs veh, MAT2A / RFU, CCT5 / Fold change vs veh, CCT5 / RFU, WDR92 / Fold change vs veh, WDR92 / RFU, CUX1 / Fold change vs veh, CUX1 / RFU, TTC7A / Fold change vs veh, TTC7A / RFU, TMEM135 / Fold change vs veh, TMEM135 / RFU, DEPTOR / Fold change vs veh, DEPTOR / RFU, CPM / Fold change vs veh, CPM / RFU, DNAJB6 / Fold change vs veh, DNAJB6 / RFU, CACNA2D3 / Fold change vs veh, CACNA2D3 / RFU, DTX4 / Fold change vs veh, DTX4 / RFU, TFCP2 / Fold change vs veh, TFCP2 / RFU, GMCL1 /// GMCL1P1 / Fold change vs veh, GMCL1 /// GMCL1P1 / RFU, AEBP2 / Fold change vs veh, AEBP2 / RFU, SNHG1 /// SNORD22 /// SNORD25 /// SNORD26 /// SNORD27 /// SNORD28 /// SNORD29 /// SNORD31 / Fold change vs veh, SNHG1 /// SNORD22 /// SNORD25 /// SNORD26 /// SNORD27 /// SNORD28 /// SNORD29 /// SNORD31 / Fold change (Aza/veh), C12orf56 (ProbeSet 11735607_a_at) / Fold change (ACY-1035/veh), C12orf56 (ProbeSet 11735607_a_at) / Fold change (Aza/veh), FGFR1OP (ProbeSet 11751329_s_at) / Fold change (ACY-1035/veh), FGFR1OP (ProbeSet 11751329_s_at) / Fold change (Aza/veh), VPS36 (ProbeSet 11739960_a_at) / Fold change (ACY-1035/veh), VPS36 (ProbeSet 11739960_a_at) / RFU SYPL1 (11715823_x_at) / Fold change /veh SYPL1 (11715823_x_at) / RFU IGFBP7 (11715501_s_at) / Fold change /veh IGFBP7 (11715501_s_at) / RFU REEP3 (11722064_at) / Fold change /veh REEP3 (11722064_at) / RFU IGLL1 (11728026_x_at) / Fold change /veh IGLL1 (11728026_x_at): dose or concentration left out as unconfirmed. The conditions noted are these: ProbeSet 11747937_a_at; LIST D.

As to `Nc1ncn([C@@H]2O[C@H](CO)[C@@H](O)[C@H]2O)c(=O)n1` [azacitidine], the “Fold change vs veh, DNAJB6” value was found to be 0.52.
